Active and inactive are the calls of the source. The rule behind the calls is not given here.

For this assay, the system named is prostate cell differentiation activation, dose response. Nature of the assay: prostate cell differentiation inducers, concentration series – secondary assay, dose response (AID 1196).

The EC50 is the concentration giving half of the maximal effect. Take `Cc1cc(N2CCN(C)CC2)nc2ccc(NC(=O)c3ccc(Br)o3)cc12`: the EC50 is 2.21 µM.
For `CN(C)c1ccc(CNC2CC(C)(C)NC(C)(C)C2)cc1`, the EC50 is 5.53 µM.
With `N=c1n(CCN2CCCCC2)c2ccccc2n1CC(O)COc1ccccc1` (stereo not given) the figure was 2.21 µM; with `O=C(NCCCN1CCN(c2cccc(Cl)c2)CC1)c1cccc(N2CCCC2=O)c1`, 17.1 µM (inactive).
The figure for `CCn1c(=O)cc(SCC(=O)NCCN2CCN(Cc3ccccc3)CC2)c2ccccc21` is 20.4 µM (inactive).
With `COc1ccc(-c2ccc(-c3noc(-c4ccccc4)n3)c(OC)n2)cc1` the figure was 8.46 µM; with `CCN1CCN(c2cc(C)c3cc(NC(=O)c4ccc(Br)o4)ccc3n2)CC1`, 3.37 µM.
In the case of `Cc1ccccc1-c1nc(CN2CCC(C(=O)NCCCN3CCOCC3)CC2)c(C)o1`, the half-maximal effective concentration (EC50) was 5.47 µM.
In the case of `CCOc1ccc(NC(=O)COc2nsnc2N2CCCCC2)cc1`, the concentration for a half-maximal effect (EC50) is 0.277 µM.
Consider `CCN1CCCC1CNC(=O)c1cc2c(-c3ccc(Cl)cc3)nn(C)c2s1` (stereo not given), for which the 50% effective concentration (EC50) is 1.51 µM.
With `COc1ccc(CCn2c(=N)c(C(=O)NCc3ccco3)cc3c(=O)n4ccccc4nc32)cc1` the figure was 29.2 µM (inactive).
With `CCOc1ccccc1NC(=O)c1nc[nH]c1C(=O)Nc1ccccc1OCC` the figure was 8.92 µM.
Turning to `COc1ccccc1NC(=O)c1nc[nH]c1C(=O)Nc1ccccc1OC`, the EC50 was 2.67 µM.
The figure for `COc1ccc(Nc2nc(N)nc(CN3CCC(Cc4ccccc4)CC3)n2)cc1` is 2.89 µM.
With `CCN1CCCC1CNC(=O)C1CCN(Cc2nc(-c3cccc(Br)c3)oc2C)CC1` (stereo not given), the EC50 was 1.16 µM.
With `Cc1ccccc1-c1nc(CN2CCCC(C(=O)NCCCN3CCOCC3)C2)c(C)o1` (stereo not given) the figure was 11.7 µM (inactive); with `CN(C)CCCN1c2ccccc2CCc2ccc(Cl)cc21`, 1.46 µM; with `Cc1oc(-c2ccc(Cl)cc2)nc1CN1CCC(C(=O)N2CCN(Cc3ccccc3)CC2)CC1`, 1.81 µM.
With `Cc1ccc(C)c(N2CCN(CCCNC(=O)Cn3cc4c(n3)CCCCC4)CC2)c1`, the EC50 was 2.68 µM.
The figure for `CC1CCCCN1CCNC(=O)c1ccc2c(=O)n(CCc3ccccc3)c(=O)[nH]c2c1` (stereo not given) is 16.2 µM (inactive).
With `CCCN(CCC)CCNC(=O)C1CCN(Cc2nc(-c3ccc(Cl)cc3)oc2C)CC1` the figure was 6.5 µM.
The figure for `Cc1ccccc1CS(=O)(=O)CCC(=O)NCCCN1CCN(c2ccccc2F)CC1` is 7.46 µM; for `Cn1nc(-c2ccc(Cl)cc2)c2cc(C(=O)NCCCN3CCOCC3)sc21` it is 5.34 µM; for `Cc1ccc(OCC(O)Cn2c(=N)n(CCN3CCCCC3)c3ccccc32)cc1` (stereo not given) it is 1.47 µM.
As for `COc1ccc2cc3cc(C(=O)Nc4ccccc4N4CCN(C)CC4)oc3nc2c1`, the EC50 is 3.87 µM.
As for `Cc1oc(-c2ccc(Cl)cc2)nc1CN1CCC(C(=O)NCCCN2CCOCC2)CC1`, the 50% effective concentration (EC50) is 3.44 µM.
With `Cc1ccccc1-c1nc(CN2CCC(C(=O)NCc3cccnc3)CC2)c(C)o1` the figure was 12.5 µM (inactive); with `CCCOc1ccccc1C1CC(=O)Nc2cc3c(cc21)OCO3` (stereo not given), 0.239 µM; with `COc1ccc(-c2noc(-c3cc(Cl)ccc3Cl)n2)cc1OC`, 10.3 µM (inactive).
As for `Cc1ccc2c(c1)-c1c(cnn1CC(=O)Nc1ccccc1N1CCN(C)CC1)CO2`, the EC50 was 6.04 µM.
Regarding `CCN1CCN(C(c2cccs2)C(C)NS(=O)(=O)c2ccc(Br)cc2)CC1` (stereo not given), the EC50 was 16.8 µM (inactive).
With `Cc1ccccc1-c1nc(CN2CCC(C(=O)NCCCN3CC(C)CC(C)C3)CC2)c(C)o1` (stereo not given), the EC50 is 1.27 µM.
Regarding `Cn1c(C(=O)NCCCN2CCN(c3cccc(Cl)c3)CC2)cc2c(=O)n(C)c3ccccc3c21`, the EC50 was 11.1 µM (inactive).
As for `Cn1c(=O)cc(OCC(=O)NCCCN2CCN(c3ccccc3F)CC2)c2ccccc21`, the EC50 is 27.8 µM (inactive).
Regarding `CCN1CCN(CCNC(=O)C2CCN(Cc3nc(-c4ccc(Cl)cc4)oc3C)CC2)CC1`, the EC50 was 6.46 µM.
The figure for `COc1cc2nc(N3CCN(C(=O)C4COc5ccccc5O4)CC3)nc(N)c2cc1OC` (stereo not given) is 8.34 µM; for `Cc1ccc(Nc2cc(=O)n(C3CCCCC3)c(=O)[nH]2)cc1C` it is 0.0873 µM; for `CCN(CC)CCCNC(=O)c1cc2c(-c3ccc(Cl)cc3)nn(C)c2s1` it is 2.85 µM.
With `CCN(CC)CCNC(=O)c1cc2c(-c3ccc(Cl)cc3)nn(C)c2s1` the figure was 2.48 µM.
Consider `Cn1c(=O)cc(SCC(=O)NCCCN2CCN(c3ccccc3F)CC2)c2ccccc21`, for which the EC50 is 9.37 µM.
With `CCn1c(=O)cc(SCC(=O)NCCCN2CCN(c3ccccc3F)CC2)c2ccccc21`, the EC50 was 9.05 µM.
With `CCN1CCN(c2ncc(C(=O)Nc3cc(Cl)c(OC)cc3OC)c3ccccc23)CC1` the figure was 5.27 µM; with `CCOC(=O)c1ccccc1NC(=O)Cn1c(-c2nonc2N)nc2ccccc21`, 0.218 µM.
The figure for `CCOc1cccc2cc(-c3cn4cc(C)ccc4n3)c(=O)oc12` is 3.03 µM; for `CCN(CC)CCNC(=O)c1ccc(N2CCCCC2)c(NS(=O)(=O)c2ccc(C)cc2)c1` it is 5.88 µM.

(Values after PubChem BioAssay AID1196 (NMMLSC, 2008).)
